We go through 5 molecules from patent US20250018048A1, “FLUCONAZOLE-COX INHIBITOR HYBRIDS: A DUAL-ACTING CLASS OF ANTIFUNGAL AZOLES” (Ramot at Tel-Aviv University Ltd., priority 2022, published 2025).

In brackets after ≈: the same amount, converted by molar mass.

Type in all cases: cell-based
The test system of assay [1] is C. albicans 742 (erg11ΔΔ/erg3ΔΔ mutant C. albicans strain). Put plainly: MIC80 broth double-dilution assay, strain lacking CYP51. Conditions: YPAD medium, 30° C., 24 h; erg11ΔΔ/erg3ΔΔ mutant lacking CYP51. The procedure:
(§1) The antifungal activities of the 24 azole-COX inhibitor hybrids were evaluated against a panel of 16 representative strains of different species of the genus Candida. Candida species cause both superficial and systemic infections. The panel included strains of C. albicans, C. glabrata, C. parapsilosis, C. tropicalis, C. guilliermondii, C. dubliniensis, and C. auris (Table S2). To evaluate antifungal activity, the minimal inhibitory concentration 80% (MIC80) values were determined, which were defined as the lowest drug concentrations with turbidity (measured at OD600) less than or equal to that of specific 1:5 dilutions of the growth control. As controls, FLC and VOR, were tested.
(§2) The clinically used FLC and VOR act primarily by preventing ergosterol biosynthesis via inhibition of CYP51. Analysis was done to determine whether fungal growth inhibition by the hybrids required the presence of the ERG11 gene that encodes for CYP51. The antifungal activities of hybrids 1 and 5 and of FLC and VOR were determined against an erg11ΔΔ/erg3ΔΔ mutant C. albicans strain and against C. albicans SN152 from which this double knockout strain was derived (Table S2). […] Yeast growth was followed at OD600 over 48 h in 96-well plates containing serial double dilutions of the tested hybrids.
(§3) C. albicans, C. glabrata, C. parapsilosis, C. guilliermondii, C. tropicalis, and C. dubliniensis MICs were determined using CLSI M27-A3 guidelines with minor modifications. Starter cultures were streaked from glycerol stock onto YPAD agar plates and grown for 24 h at 30° C. Colonies were suspended in 1 mL PBS and diluted to 1×10^−3 OD600 and then diluted 1:100 into fresh medium. Hybrids dissolved in DMSO were added to YPAD broth (32 μL stock solution in 1218 μL of YPAD broth), and serial double dilutions of hybrids in YPAD were prepared in flat-bottomed 96-well microplates (Corning) to enable testing of concentrations ranging from 64 μg/mL to 0.003 μg/mL. Control wells with yeast cells but no drug and blank wells containing only YPAD were prepared. An equal volume (100 μL) of yeast suspensions in YPAD broth was added to each well with the exceptions of the blank wells. MIC values (Tables S4-S6) were determined after 24 h at 30° C. by measuring the OD600 using a plate reader (Infinite M200 PRO, Tecan). MIC values were defined as the point at which the OD600 was reduced by >80% compared to the no-drug wells. Each concentration was tested in triplicate, and results were confirmed by two independent sets of experiments. FLC and VOR were used as control drugs.

Assay [2] relates to panel of 16 representative strains of different species of the genus Candida. Kind of assay: Antifungal activity (MIC80) against a panel of Candida strains, comparison. As to conditions: azole-susceptible strains. Here is the method: as §1
(§4) MIC80 values were determined using the broth microdilution method over a concentration range of 0.003-64 μg/mL. Orange circles represent C. albicans strains, yellow circles represent C. glabrata strains, and green circles represent C. parapsilosis, C. tropicalis, C. dubliniensis and C. auris. Cells were grown in YPAD medium at 30° C. (For C. auris strains 37° C.) 24 h. Each concentration was tested in triplicate, and results were confirmed in at least two independent experiments.
as §3

Assay [3] concerns C. albicans SC5314. Kind of assay: MIC80 broth double-dilution assay. As to conditions: YPAD medium, 30° C., 24 h. Here is the method:
as §1, §4, §3

The subject of assay [4] is C. albicans P-87. Kind of assay: MIC80 broth double-dilution assay. As to conditions: YPAD medium, 30° C., 24 h. The procedure:
as §1, §4, §3

For assay [5], the system named is C. parapsilosis ATCC 22019. Put plainly: MIC80 broth double-dilution assay. As to conditions: YPAD medium, 30° C., 24 h. Here is the method:
as §1, §4, §3

The test system of assay [6] is C. tropicalis 660. Kind of assay: MIC80 broth double-dilution assay. As to conditions: YPAD medium, 30° C., 24 h. The procedure: as §1, §4, §3
Assay [7] concerns C. dubliniensis T-99. Kind of assay: MIC80 broth double-dilution assay. As to conditions: YPAD medium, 30° C., 24 h. The procedure: as §1, §4, §3
Assay [8] deals with C. albicans ATCC 24433. Put plainly: MIC80 broth double-dilution assay. As to conditions: YPAD medium, 30° C., 24 h. The procedure: as §1, §4, §3
In assay [9] the test system is C. albicans ATCC 90028. Kind of assay: MIC80 broth double-dilution assay. Conditions: YPAD medium, 30° C., 24 h. Here is the method: as §1, §4, §3
For assay [10], the system named is C. guilliermondii T-47. Kind of assay: MIC80 broth double-dilution assay. As to conditions: YPAD medium, 30° C., 24 h. The procedure: as §1, §3
The subject of assay [11] is C. albicans SN152. Put plainly: MIC80 broth double-dilution assay. Conditions: YPAD medium, 30° C., 24 h; parent strain of the erg11ΔΔ/erg3ΔΔ mutant. The procedure: as §1, §4, §2, §3
The test system of assay [12] is erg11ΔΔ/erg3ΔΔ mutant C. albicans. Put plainly: Growth curve analysis of C. albicans lacking CYP51. Conditions: entire range of concentrations (64 to 1 μg/mL), YPAD, 30° C., 48 h. Here is the method:
as §2
Cells of erg11ΔΔ/erg3ΔΔ mutant C. albicans were grown in YPAD media at 30° C. and treated with different concentrations of the tested hybrids. Growth was measured by recording the OD600 values every 40 minutes over a 48-h course on an automated plate reader.
Growth curve analyses: Growth curves were determined using the double-dilution method in 96-well plates. Starter cultures were streaked from glycerol stock onto YPAD agar plates and grown for 24 h at 30° C. Colonies were suspended in 1 mL PBS and diluted to 1×10^−3 OD600 and then diluted 1:100 into fresh medium. Hybrids dissolved in DMSO were added to YPAD broth (32 μL stock solution in 1218 μL of YPAD broth), and serial double dilutions of hybrids in YPAD were prepared in flat-bottomed 96-well microplates (Corning) to enable testing of concentrations ranging from 64 μg/mL to 1 μg/mL. Control wells with yeast cells but no drug (100% growth) and blank wells containing only YPAD (0% growth) were prepared. An equal volume (100 μL) of yeast suspensions in YPAD broth was added to each well with the exceptions of the blank wells. Growth was determined at 30° C. by measuring the OD600 using a plate reader (Infinite M200 PRO, Tecan) every 40 minutes over 48 h. Each concentration was tested in triplicate, and results were confirmed by two independent sets of experiments. FLC and VOR were used as control drugs.

Assay [13] relates to C. auris ATCC MYA5002. Kind of assay: MIC broth double-dilution assay with MTT (CLSI M27-A3). As to conditions: YPAD medium, 37° C., 24 h, growth score 0 or 1. The procedure:
(§5) Minimal inhibitory concentration broth double-dilution assay: C. auris minimal inhibitory concentrations (MICs) were determined using CLSI M27-A3 guidelines with minor modifications. Starter cultures were streaked from glycerol stock onto YPAD agar plates and grown for 24 h at 37° C. Colonies were suspended in 1 mL PBS and diluted to 1×10^−3 optical density at 600 nm (OD600) and then diluted 1:100 into fresh medium. hybrids dissolved in DMSO were added to YPAD broth (32 μL stock solution in 1218 μL of YPAD broth), and serial double dilutions of hybrids in YPAD were prepared in flat-bottomed 96-well microplates (Corning) to enable testing of concentrations ranging from 64 μg/mL to 0.007 μg/mL. Control wells with yeast cells but no drug and blank wells containing only YPAD were prepared. An equal volume (100 μL) of yeast suspension in YPAD broth was added to each well with the exceptions of the blank wells. After incubation for 24 h at 37° C., MTT (50 μL of a 1 mg/mL solution in ddH2O) was added to each well followed by additional incubation at 37° C. for 2 h. MIC values (Table S3) were defined as the lowest concentration of an antifungal agent that caused a specified reduction in visible growth as per the CLSI M27-A3 protocol. The magnitude of reduction in visible growth was assessed using the following numerical scale: 0, optically clear; 1, slightly hazy; 2, prominent decrease (˜50%) in visible growth; 3, slight reduction in visible growth; and 4, no reduction in visible growth. The MIC was defined based on reduction in growth to 0 or 1. Results were confirmed in two independent experiments, and each concentration was tested in triplicate. FLC and VOR were used as control drugs.

Assay [14] relates to C. auris ATCC MYA5001. The description is as above. Conditions: YPAD medium, 37° C., 24 h, growth score 0 or 1. The procedure:
as §5

For the molecule `CC(C)Cc1ccc([C@@H](C)C(=O)NC[C@@](O)(Cn2cncn2)c2ccc(F)cc2F)cc1` [Hybrid 3], the “MIC80 against C. albicans 742” value in assay [1] was 64 µg/mL (≈ 145 µM). The “Antifungal potency (MIC80) in comparison with FLC, VOR or the corresponding stereoisomer” value in assay [2] is given as “more potent than the corresponding S-configured ibuprofen hybrid 4”. Also, the “MIC80 against C. albicans SC5314” value in assay [3] came to 0.03 µg/mL (≈ 0.0678 µM). In addition, the “MIC80 against C. albicans P-87” value in assay [4] came to 0.03 µg/mL (≈ 0.0678 µM). Further, the “MIC80 against C. parapsilosis 22019” value in assay [5] came out at 0.5 µg/mL (≈ 1.13 µM). In assay [6], the “MIC80 against C. tropicalis 660” value worked out at 1 µg/mL (≈ 2.26 µM). Further, the “MIC80 against C. dubliniensis T-99” value in assay [7] was found to be 1 µg/mL (≈ 2.26 µM). Also, in [8], the “MIC80 against C. albicans 24433” value came out at 0.12 µg/mL (≈ 0.271 µM). Moreover, in assay [9], the “MIC80 against C. albicans 90028” value was found to be 0.06 µg/mL (≈ 0.136 µM). Besides, the “MIC80 against C. guilliermondii T-47” value in assay [10] is 1 µg/mL (≈ 2.26 µM). The “MIC80 against C. albicans SN152” value in [11] was 0.06 µg/mL (≈ 0.136 µM).
As to `CC(C)Cc1ccc(C(C)C(=O)O)cc1` (centres unmarked) [ibuprofen], the “Effect on growth (OD600) of the double knockout mutant” value in assay [12] is listed as “Dose-dependent growth reduction”.
`COc1ccc2cc([C@@H](C)C(=O)NC[C@](O)(Cn3cncn3)c3ccc(F)cc3F)ccc2c1` [Hybrid 10]: the “MIC80 against C. albicans 742” value in assay [1] is over 64 µg/mL. Moreover, the “MIC against C. auris 5002” value in assay [13] was 16 µg/mL (≈ 34.3 µM). The “MIC against C. auris 5001” value in [14] amounted to 0.5 µg/mL (≈ 1.07 µM). The “MIC80 against C. albicans SC5314” value in [3] is 0.12 µg/mL (≈ 0.257 µM). Moreover, in assay [4], the “MIC80 against C. albicans P-87” value worked out at 0.25 µg/mL (≈ 0.536 µM). Moreover, the “MIC80 against C. parapsilosis 22019” value in assay [5] is 1 µg/mL (≈ 2.14 µM). In addition, in assay [6], the “MIC80 against C. tropicalis 660” value was found to be 4 µg/mL (≈ 8.57 µM). In addition, the “MIC80 against C. dubliniensis T-99” value in assay [7] was determined as 2 µg/mL (≈ 4.29 µM). Moreover, the “MIC80 against C. albicans 24433” value in [8] was 0.25 µg/mL (≈ 0.536 µM). For the same molecule, the “MIC80 against C. albicans 90028” value in assay [9] is 0.12 µg/mL (≈ 0.257 µM). Further, the “MIC80 against C. guilliermondii T-47” value in [10] worked out at 1 µg/mL (≈ 2.14 µM). The “MIC80 against C. albicans SN152” value in assay [11] was 0.012 µg/mL (≈ 0.0257 µM).
Consider `CC(C)Cc1ccc([C@@H](C)C(=O)NC[C@](O)(Cn2cncn2)c2ccc(F)cc2F)cc1` [Hybrid 2], for which the “MIC80 against C. albicans 742” value in [1] stood at 64 µg/mL (≈ 145 µM). Further, in [2], the “Antifungal potency (MIC80) in comparison with FLC, VOR or the corresponding stereoisomer” value is listed as “lowest MIC80 values against all of the azole-susceptible strains”. In assay [13], the “MIC against C. auris 5002” value stood at 1 µg/mL (≈ 2.26 µM). The “MIC against C. auris 5001” value in assay [14] was found to be 0.06 µg/mL (≈ 0.136 µM). For the same molecule, the “MIC80 against C. albicans SC5314” value in assay [3] worked out at 0.007 µg/mL (≈ 0.0158 µM). In addition, in [4], the “MIC80 against C. albicans P-87” value turned out to be 0.007 µg/mL (≈ 0.0158 µM). For the same molecule, the “MIC80 against C. parapsilosis 22019” value in assay [5] came to 0.015 µg/mL (≈ 0.0339 µM). The “MIC80 against C. tropicalis 660” value in assay [6] was 0.5 µg/mL (≈ 1.13 µM). In assay [7], the “MIC80 against C. dubliniensis T-99” value was 0.12 µg/mL (≈ 0.271 µM). Further, the “MIC80 against C. albicans 24433” value in assay [8] is 0.015 µg/mL (≈ 0.0339 µM). For the same molecule, in assay [9], the “MIC80 against C. albicans 90028” value is 0.007 µg/mL (≈ 0.0158 µM). The “MIC80 against C. guilliermondii T-47” value in [10] was 0.06 µg/mL (≈ 0.136 µM). In addition, the “MIC80 against C. albicans SN152” value in assay [11] was 0.007 µg/mL (≈ 0.0158 µM).
Turning to `CC(C(=O)O)c1ccc(-c2ccccc2)c(F)c1` (centres unmarked) [flurbiprofen], the “Effect on growth (OD600) of the double knockout mutant” value in assay [12] is reported as “Dose-dependent growth reduction”.
